Reference: patent publication US11612602B2, “Heterocyclic compounds and uses as anticancer agents” (ACEA Therapeutics, Inc., priority 2012, dated 2023)

What was measured:
Format in all cases: cell-based
HeLa cells = test: HeLa cell viability assay (cytotoxicity, xCelligence RTCA); details: Homo sapiens, 72 h, 3 days
Description: (§1) All cell lines were obtained from the American Type Culture Collection and were maintained at 37° C. with 5% CO2, in media supplemented with 10% fetal bovine serum and 1% L-glutamine-penicillin-streptomycin. H1975, HCC827 and A549 cells were cultured with RPMI 1640 media. A431 and Hela cells were maintained in Dulbecco's Modification of Eagle's Medium. EGF (R&D), EGF inhibitors were resuspended and stored according to the manufacturers' instructions.
(§2) Cells were seeded in 96-well E-Plate devices, and attachment, spreading, and proliferation were monitored using the xCelligence RTCA system. After 20 h of RTCA profiling, the cells were treated with the indicated compounds prediluted in growth media to a final maximal DMSO concentration of 0.1%, and the responses were measured at 30-min intervals for 3 days. For each cell type the optimal cell concentration was chosen based on their respective proliferation pattern.

[1] = biological target: T1, EGFR (T790M/L858R), H1975 cell (Homo sapiens, UniProt P00533, L858R/T790M); test: ELISA assay of EGFR phosphorylation in H1975 cells; details: for IC50: EGFR pY1068 sandwich ELISA, 2 hours compound in serum-free medium; for Selectivity (WT/T790M): ratio of IC50 A431 cell (WT) to IC50 H1975 cell (T790M/L858R)
T1 construct: endogenous in cells; host or cells: H1975
Description: (§3) H1975 and A431 cells were seeded onto each well of a 96-well plate at a density of 4×10^4 cells per well. After 24 hours of growth in serum-containing media, cells were treated with test compound in serum-free medium for 2 hours. A431 cells were stimulated with 30 ng/mL EGF during the last 15 minutes of compound treatment. Cells were washed with ice cold PBS before extraction with 100 μl per well cell lysis buffer. Phosphorylation of EGFR was measured using a sandwich ELISA assay with the pair of phospho-specific EGFR (pY1068) and total EGFR antibodies.

EGFR in A431 cells = test: A431 EGF stimulation assay (impedance, xCelligence RTCA); details: Homo sapiens, A-431
Description: as §1, with “H1975, HCC827 and A549 cells were cultured with RPMI 1640 media.” left out
Impedance measurements were taken using the xCelligence RTCA system (Roche Applied Science) instrument using the E-plates 96-well device from the same company. Cells were trypsinized and seeded on a 96-well E-plate at a density of 15000 cells per well in a volume of 0.1 ml. Cells were allowed to attach and proliferate overnight. […] Following serum starvation, the cells were pretreated with compounds or vehicle for 40 min and then stimulated with EGF at 30 ng/mL. Throughout the experimental process, the cells were continually monitored, and the changes in impedance were acquired with the xCelligence RTCA system. After EGF treatment, data acquisition was done every minute for up to 2 h. For each cell type the optimal cell concentration was chosen based on their respective proliferation pattern.

EGFR (WT), A431 cell = biological target: T2, EGFR (WT), A431 cell (Homo sapiens, UniProt P00533); test: ELISA assay of EGFR phosphorylation in A431 cells; details: EGFR pY1068 sandwich ELISA, 2 hours compound, 30 ng/mL EGF last 15 minutes
T2 construct: endogenous in cells; host or cells: A431
Description: as §3

H1975 cells = test: H1975 cell viability assay (cytotoxicity, xCelligence RTCA); details: 3 days
Description: as §1, §2

EGFR in H1975 cells = test: H1975 EGF stimulation assay (impedance, xCelligence RTCA); details: Homo sapiens, NCI-H1975, 40 min pretreatment, EGF 30 ng/mL
Description: as §1
Impedance measurements were taken using the xCelligence RTCA system (Roche Applied Science) instrument using the E-plates 96-well device from the same company. Cells were trypsinized and seeded on a 96-well E-plate at a density of 15000 cells per well in a volume of 0.1 ml. Cells were allowed to attach and proliferate overnight. Prior to compound treatment, H1975 cells were serum starved in RPMI-1640 for a total of 4 h. Following serum starvation, the cells were pretreated with compounds or vehicle for 40 min and then stimulated with EGF at 30 ng/mL. Throughout the experimental process, the cells were continually monitored, and the changes in impedance were acquired with the xCelligence RTCA system. After EGF treatment, data acquisition was done every minute for up to 2 h. For each cell type the optimal cell concentration was chosen based on their respective proliferation pattern.

A549 cells = test: A549 cell viability assay (cytotoxicity, xCelligence RTCA); details: Homo sapiens, 72 h, 3 days
Description: as §1, §2

T2 sequence (P00533 25-1210): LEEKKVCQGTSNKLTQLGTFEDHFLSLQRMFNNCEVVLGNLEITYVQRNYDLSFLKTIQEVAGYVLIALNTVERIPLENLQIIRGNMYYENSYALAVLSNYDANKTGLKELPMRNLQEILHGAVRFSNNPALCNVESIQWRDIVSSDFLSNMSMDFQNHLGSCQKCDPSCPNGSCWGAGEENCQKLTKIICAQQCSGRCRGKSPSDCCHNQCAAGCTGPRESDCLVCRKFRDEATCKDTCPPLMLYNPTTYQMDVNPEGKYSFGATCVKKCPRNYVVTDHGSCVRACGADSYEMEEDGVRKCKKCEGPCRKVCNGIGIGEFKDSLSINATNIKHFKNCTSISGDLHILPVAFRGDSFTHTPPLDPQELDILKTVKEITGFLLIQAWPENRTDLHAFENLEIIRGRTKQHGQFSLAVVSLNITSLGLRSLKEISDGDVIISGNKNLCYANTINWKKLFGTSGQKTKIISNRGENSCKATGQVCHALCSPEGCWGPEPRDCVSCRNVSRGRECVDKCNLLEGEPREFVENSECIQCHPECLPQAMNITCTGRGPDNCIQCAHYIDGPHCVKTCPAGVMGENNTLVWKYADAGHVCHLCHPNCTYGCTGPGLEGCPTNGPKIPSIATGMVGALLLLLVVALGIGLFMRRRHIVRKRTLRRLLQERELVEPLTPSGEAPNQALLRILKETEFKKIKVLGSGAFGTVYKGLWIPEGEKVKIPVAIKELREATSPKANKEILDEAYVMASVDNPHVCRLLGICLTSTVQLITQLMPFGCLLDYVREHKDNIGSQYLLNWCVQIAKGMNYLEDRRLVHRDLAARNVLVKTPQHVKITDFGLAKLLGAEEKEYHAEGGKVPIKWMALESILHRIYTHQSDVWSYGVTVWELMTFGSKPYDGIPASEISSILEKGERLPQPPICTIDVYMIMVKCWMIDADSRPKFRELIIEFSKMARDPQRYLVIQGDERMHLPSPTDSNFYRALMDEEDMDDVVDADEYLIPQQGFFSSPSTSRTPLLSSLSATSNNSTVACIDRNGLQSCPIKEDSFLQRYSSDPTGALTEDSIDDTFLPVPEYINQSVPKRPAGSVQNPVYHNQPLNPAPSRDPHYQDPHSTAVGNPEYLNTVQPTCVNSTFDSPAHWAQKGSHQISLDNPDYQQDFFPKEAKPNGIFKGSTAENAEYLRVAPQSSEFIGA
T1 sequence (P00533 25-1210 T790M/L858R): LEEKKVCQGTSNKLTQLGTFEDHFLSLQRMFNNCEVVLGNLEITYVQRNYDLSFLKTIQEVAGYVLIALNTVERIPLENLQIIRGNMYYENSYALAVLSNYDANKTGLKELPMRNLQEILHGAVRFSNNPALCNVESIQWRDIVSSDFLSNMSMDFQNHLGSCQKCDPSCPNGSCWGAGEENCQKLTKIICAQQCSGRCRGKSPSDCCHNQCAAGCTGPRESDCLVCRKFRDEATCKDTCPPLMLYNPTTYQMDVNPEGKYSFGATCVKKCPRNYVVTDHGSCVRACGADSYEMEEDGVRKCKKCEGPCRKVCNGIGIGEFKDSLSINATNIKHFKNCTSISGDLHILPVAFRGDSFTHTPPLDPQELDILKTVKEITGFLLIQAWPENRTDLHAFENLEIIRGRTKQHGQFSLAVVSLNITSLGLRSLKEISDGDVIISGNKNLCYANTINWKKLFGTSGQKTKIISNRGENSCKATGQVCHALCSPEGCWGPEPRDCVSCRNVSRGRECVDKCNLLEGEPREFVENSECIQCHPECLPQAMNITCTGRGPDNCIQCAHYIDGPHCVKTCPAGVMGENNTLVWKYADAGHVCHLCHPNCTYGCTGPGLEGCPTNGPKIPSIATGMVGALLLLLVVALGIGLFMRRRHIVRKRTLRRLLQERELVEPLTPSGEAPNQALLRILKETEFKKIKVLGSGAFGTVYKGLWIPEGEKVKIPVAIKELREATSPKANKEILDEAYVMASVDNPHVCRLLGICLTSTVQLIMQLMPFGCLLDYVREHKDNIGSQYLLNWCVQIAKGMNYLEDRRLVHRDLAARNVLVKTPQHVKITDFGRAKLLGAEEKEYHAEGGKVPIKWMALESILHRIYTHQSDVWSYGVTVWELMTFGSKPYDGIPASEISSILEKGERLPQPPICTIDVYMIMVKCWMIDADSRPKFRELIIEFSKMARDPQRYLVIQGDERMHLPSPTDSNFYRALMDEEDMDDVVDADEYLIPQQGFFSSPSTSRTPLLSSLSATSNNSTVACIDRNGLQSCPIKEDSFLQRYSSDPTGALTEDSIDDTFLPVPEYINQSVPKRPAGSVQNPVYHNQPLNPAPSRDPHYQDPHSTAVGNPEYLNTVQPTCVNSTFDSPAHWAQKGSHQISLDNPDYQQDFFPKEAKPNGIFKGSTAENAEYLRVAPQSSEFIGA

IC50 [1] | Selectivity (WT/T790M) [1] | IC50 (EGFR in A431 cells) | IC50 (EGFR (WT), A431 cell) | IC50 (EGFR in H1975 cells) | SMILES | IC50 (HeLa cells) | H1975 cell viability assay (under head IC50 (uM), results in words) (H1975 cells) | IC50 (A549 cells)
0.17 µM | 82 | 2.4 µM | 13.7 µM | 1.7 µM | C=CC(=O)Nc1cccc(C(F)(F)c2nc(Nc3ccc(N4CCN(C)CC4)cc3)nc3[nH]cnc23)c1 [Compound 13a, N-(3-(difluoro(2-(4-(4-methylpiperazin-1-yl)phenylamino)-9H-purin-6-yl)methyl)phenyl)acrylamide] | > 2.2 µM | Active | > 20 µM
0.34 µM | 32 | 4.1 µM | 10.8 µM | 1.9 µM | C=CC(=O)Nc1cccc(C(F)(F)c2nc(Nc3ccc(N4CCN(C)CC4)cc3OC)nc3[nH]cnc23)c1 [Compound 13b, N-(3-(difluoro(2-(2-methoxy-4-(4-methylpiperazin-1-yl)phenylamino)-9H-purin-6-yl)methyl)phenyl)acrylamide] | > 20 µM | – | > 20 µM
0.029 µM | 85 | 0.97 µM | 2.46 µM | 1.1 µM | C=CC(=O)Nc1cccc(C(F)(F)c2nc(Nc3ccc(N4CCN(C)CC4)cc3)ncc2F)c1 [Compound 19, N-(3-(difluoro(5-fluoro-2-(4-(4-methylpiperazin-1-yl)phenylamino)pyrimidin-4-yl)methyl)phenyl)acrylamide] | > 6.7 µM | Active | > 6.7 µM
0.058 µM | 403 | – | 23.4 µM | – | C=CC(=O)Nc1cccc(C(F)(F)c2nc(Nc3ccc(N4CCN(C)CC4)cc3)nc3c2ccn3CO)c1 [Compound 27a, N-(3-(difluoro(7-(hydroxymethyl)-2-(4-(4-methylpiperazin-1-yl)phenylamino)-7H-pyrrolo[2,3-d]pyrimidin-4-yl)methyl)phenyl)acrylamide] | – | – | –
0.026 µM | 107 | – | 2.73 µM | – | C=CC(=O)Nc1cccc(C(F)(F)c2nc(Nc3ccc(N4CCN(C)CC4)cc3)nc3[nH]ccc23)c1 [Compound 28a, N-(3-(difluoro(2-(4-(4-methylpiperazin-1-yl)phenylamino)-7H-pyrrolo[2,3-d]pyrimidin-4-yl)methyl)phenyl)acrylamide] | – | – | –
0.026 µM | 466 | – | 12 µM | – | C=CC(=O)Nc1cccc(C(F)(F)c2nc(Nc3ccc(N4CCN(C)CC4)nc3)nc3[nH]ccc23)c1 [Compound 28b, N-(3-(difluoro(2-(6-(4-methylpiperazin-1-yl)pyridin-3-ylamino)-7H-pyrrolo[2,3-d]pyrimidin-4-yl)methyl)phenyl)acrylamide] | – | – | –
0.08 µM | 100 | – | 8.05 µM | – | C=CC(=O)Nc1cccc(C(F)(F)c2nc(Nc3ccc(N4CCN(C)CC4)c(F)c3)nc3[nH]ccc23)c1 [Compound 28c, N-(3-(difluoro(2-(3-fluoro-4-(4-methylpiperazin-1-yl)phenylamino)-7H-pyrrolo[2,3-d]pyrimidin-4-yl)methyl)phenyl)acrylamide] | – | – | –
0.158 µM | >127 | – | > 20 µM | – | C=CC(=O)Nc1cccc(C(F)(F)c2nc(Nc3ccc(N4CCN(C)CC4)cc3OC)nc3[nH]ccc23)c1 [Compound 28d, N-(3-(difluoro(2-(2-methoxy-4-(4-methylpiperazin-1-yl)phenylamino)-7H-pyrrolo[2,3-d]pyrimidin-4-yl)methyl)phenyl)acrylamide] | – | – | –
0.03 µM | >657 | – | > 20 µM | – | C=CC(=O)Nc1cccc(C(F)(F)c2nc(Nc3ccc(N4CCN(C)CC4)nc3)ncc2OC)c1 [Compound 31] | – | – | –
1.3 µM | >15.4 | – | > 20 µM | – | C=CC(=O)Nc1cccc(C(F)(F)c2nc(Nc3ccc(N4CCN(C)CC4)cc3OC)ncc2F)c1 [Compound 32] | – | – | –
0.099 µM | 72.6 | – | 7.17 µM | – | C=CC(=O)Nc1cccc(C(F)(F)c2nc(Nc3ccc(N4CCN(C)CC4)nc3)ncc2F)c1 [Compound 33] | – | – | –
0.038 µM | 113 | – | 4.37 µM | – | C=CC(=O)Nc1cccc(C(F)(F)c2nc(Nc3ccc(N4CCN(C)CC4)c(F)c3)ncc2OC)c1 [Compound 34] | – | – | –
0.062 µM | 58.4 | – | 3.61 µM | – | C=CC(=O)Nc1cccc(C(F)(F)c2nc(Nc3ccc(N4CCN(C)CC4)cc3)ncc2OC)c1 [Compound 35] | – | – | –
0.093 µM | 23.3 | – | 2.17 µM | – | C=CC(=O)Nc1cccc(C(F)(F)c2nc(Nc3ccc(N4CCN(C)CC4)c(F)c3)ncc2F)c1 [Compound 36] | – | – | –
0.106 µM | 105 | – | 11.1 µM | – | C=CC(=O)Nc1cccc(C(F)(F)c2nc(Nc3ccc(N4CCN(C)CC4)cc3)ncc2C)c1 [Compound 37] | – | – | –
0.341 µM | 11.2 | – | 3.81 µM | – | C=CC(=O)Nc1cccc(C(F)(F)c2nc(Nc3ccc(N4CCN(C)CC4)cc3)ncc2Cl)c1 [Compound 38] | – | – | –
0.041 µM | 17.3 | – | 0.71 µM | – | C=CC(=O)Nc1cccc(C(F)(F)c2nc(Nc3ccc(N4CCN(CC)CC4)cc3)ncc2F)c1 [Compound 39] | – | – | –
1.74 µM | 14.6 | – | 25.3 µM | – | C/C=C/C(=O)Nc1cccc(C(F)(F)c2nc(Nc3ccc(N4CCN(C)CC4)cc3)ncc2F)c1 [Compound 40] | – | – | –
1.63 µM | 7.2 | – | 11.8 µM | – | C/C=C/C(=O)Nc1cccc(C(F)(F)c2nc(Nc3ccc(N4CCN(CC)CC4)cc3)ncc2F)c1 [Compound 42] | – | – | –
0.03 µM | 974 | – | 28.8 µM | – | C=CC(=O)Nc1cccc(C(F)(F)c2nc(Nc3ccc(N4CCN(C)CC4)cc3OC)ncc2OC)c1 [Compound 63] | – | – | –
– | – | 0.817 µM | – | 1.1 µM | C=CC(=O)Nc1cccc(Oc2nc(Nc3ccc(N4CCN(C)CC4)cc3OC)ncc2Cl)c1 [WZ4002, reference compound] | > 6.7 µM | Active | > 20 µM
